In the experiment the target is T1, CDK2 (Homo sapiens, UniProt P24941).
T1 construct: endogenous in cells; host or cells: MKN1 cells
Briefly: CDK2 degradation in MKN1 cells (AlphaLISA). The settings on record: 14 h incubation; for DC50: read-out: CDK2 degradation 14 h: Mean external-Abs DC50. The experiment is classed as cell-based. A digest of the protocol:
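MKN1 cells (2e4/well) treated 14 h at 37° C with 11-point 1:5 dilutions (0.001 nM-10 μM, 0.1% DMSO). CDK2 in lysates quantified by AlphaLISA, no-cell background subtracted; DC50 from four-parameter logistic fit.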
(Alpha assays give light when donor and acceptor beads are brought close together.)

As to `CC1(O)CCCN(c2nc(Nc3ccc(S(=O)(=O)NC4CCC(CN5CCN(c6ccc(C7CCC(=O)NC7=O)cc6)CC5)CC4)cc3C(F)(F)F)ncc2C(F)(F)F)C1` (stereo not drawn) [I-1101], the “CDK2 degradation 14 h: Average Dmax %” value was “B (B (>50% -75%))” and the 50% degradation concentration (DC50) was in the range of 0.1 to 0.5 µM.

For `CC1(O)CCCN(c2nc(Nc3ccc(S(=O)(=O)NC4CCC(CN5CCN(c6ccc(C7CCC(=O)NC7=O)cc6)CC5)CC4)cc3C(F)F)ncc2C(F)(F)F)C1` (stereo not drawn) [I-1102], the “CDK2 degradation 14 h: Average Dmax %” value is reported as “A (A (>75% o))” and the half-maximal degradation concentration (DC50) is under 0.1 µM.

As to `CC1(O)CCCN(c2nc(Nc3ccc(S(=O)(=O)NC4CCC(CN5CCN(c6ccc(C7CCC(=O)NC7=O)c(Cl)c6)CC5)CC4)cc3C(F)(F)F)ncc2C(F)(F)F)C1` (stereo not drawn) [I-1103], the “CDK2 degradation 14 h: Average Dmax %” value was “C (C (>25% -50%))” and the DC50 was over 1 µM.

Consider `CC1(O)CCCN(c2nc(Nc3ccc(S(=O)(=O)NC4CCC(CN5CCN(c6ccc(C7CCC(=O)NC7=O)c(Cl)c6)CC5)CC4)cc3C(F)F)ncc2C(F)(F)F)C1` (stereo not drawn) [I-1104], for which the “CDK2 degradation 14 h: Average Dmax %” value is on record as “A (A (>75% o))” and the DC50 was under 0.1 µM.

With `Cc1c(Nc2ncc(C(F)(F)F)c(N3CCCC(C)(O)C3)n2)ccc(S(=O)(=O)NC2CCC(CN3CCN(c4ccc(C5CCC(=O)NC5=O)c(F)c4)CC3)CC2)c1F` (stereo not drawn) [I-1105], the “CDK2 degradation 14 h: Average Dmax %” value is reported as “A (A (>75% o))” and the DC50 was under 0.1 µM.

With `CC1(O)CCCN(c2nc(Nc3ccc(S(=O)(=O)NC4CCC(CN5CCN(c6ccc(C7CCC(=O)NC7=O)c(Cl)c6)CC5)CC4)cc3F)ncc2C(F)(F)F)C1` (stereo not drawn) [I-1107], the “CDK2 degradation 14 h: Average Dmax %” value is “A (A (>75% o))” and the half-maximal degradation concentration (DC50) was under 0.1 µM.

Turning to `CC1(O)CCCN(c2nc(Nc3ccc(S(=O)(=O)NC4CCC(CN5CCN(c6ccc(C7CCC(=O)NC7=O)cc6F)CC5)CC4)cc3C(F)(F)F)ncc2C(F)(F)F)C1` (stereo not drawn) [I-1110], the “CDK2 degradation 14 h: Average Dmax %” value is “B (B (>50% -75%))” and the DC50 was 0.1 to 0.5 µM.

Consider `CC1(O)CCCN(c2nc(Nc3ccc(S(=O)(=O)NC4CCC(CN5CCN(c6ccc(C7CCC(=O)NC7=O)cc6F)CC5)CC4)cc3OC(F)F)ncc2C(F)(F)F)C1` (stereo not drawn) [I-1111], for which the “CDK2 degradation 14 h: Average Dmax %” value was “A (A (>75% o))” and the DC50 lay in the range of 0.1 to 0.5 µM.

Turning to `CC1(O)CCCN(c2nc(Nc3ccc(S(=O)(=O)NC4CCC(CN5CCN(c6ccc(C7CCC(=O)NC7=O)cc6F)CC5)CC4)cc3Cl)ncc2C(F)(F)F)C1` (stereo not drawn) [I-1112], the “CDK2 degradation 14 h: Average Dmax %” value is on record as “A (A (>75% o))” and the 50% degradation concentration (DC50) is under 0.1 µM.

In the case of `CC1(O)CCCN(c2nc(Nc3ccc(S(=O)(=O)NC4CCC(CN5CCN(c6ccc(C7CCC(=O)NC7=O)cc6F)CC5)CC4)cc3C(F)F)ncc2C(F)(F)F)C1` (stereo not drawn) [I-1113], the “CDK2 degradation 14 h: Average Dmax %” value was “A (A (>75% o))” and the DC50 was under 0.1 µM.

Regarding `CC1(O)CCCN(c2nc(Nc3ccc(S(=O)(=O)NC4CCC(CN5CCN(c6ccc(C7CCC(=O)NC7=O)c(F)c6)CC5)CC4)cc3C(F)(F)F)ncc2C(F)(F)F)C1` (stereo not drawn) [I-1114], the “CDK2 degradation 14 h: Average Dmax %” value is on record as “B (B (>50% -75%))” and the DC50 lay within 0.1 to 0.5 µM.

As to `CC1(O)CCCN(c2nc(Nc3ccc(S(=O)(=O)NC4CCC(CN5CCN(c6ccc(C7CCC(=O)NC7=O)c(F)c6)CC5)CC4)cc3OC(F)F)ncc2C(F)(F)F)C1` (stereo not drawn) [I-1115], the “CDK2 degradation 14 h: Average Dmax %” value is given as “A (A (>75% o))” and the DC50 lay within 0.1 to 0.5 µM.

For `CC1(O)CCCN(c2nc(Nc3ccc(S(=O)(=O)NC4CCC(CN5CCN(c6ccc(C7CCC(=O)NC7=O)c(F)c6)CC5)CC4)cc3F)ncc2C(F)(F)F)C1` (stereo not drawn) [I-1117], the “CDK2 degradation 14 h: Average Dmax %” value is reported as “A (A (>75% o))” and the DC50 is under 0.1 µM.

As to `Cc1cc(S(=O)(=O)NC2CCC(CN3CCN(c4cccc(NC5CCC(=O)NC5=O)c4)CC3)CC2)ccc1Nc1ncc(C(F)(F)F)c(N2CCCC(C)(O)C2)n1` (stereo not drawn) [I-1118], the “CDK2 degradation 14 h: Average Dmax %” value is given as “A (A (>75% o))” and the DC50 was under 0.1 µM.

Regarding `Cc1cc(S(=O)(=O)NC2CCC(CN3CCN(c4cc(NC5CCC(=O)NC5=O)ccc4F)CC3)CC2)ccc1Nc1ncc(C(F)(F)F)c(N2CCCC(C)(O)C2)n1` (stereo not drawn) [I-1120], the “CDK2 degradation 14 h: Average Dmax %” value was “A (A (>75% o))” and the DC50 is under 0.1 µM.

For the molecule `Cc1cc(S(=O)(=O)NC2CCC(CN3CCN(c4cc(F)cc(NC5CCC(=O)NC5=O)c4)CC3)CC2)ccc1Nc1ncc(C(F)(F)F)c(N2CCCC(C)(O)C2)n1` (stereo not drawn) [I-1122], the “CDK2 degradation 14 h: Average Dmax %” value is “A (A (>75% o))” and the 50% degradation concentration (DC50) is under 0.1 µM.

Consider `Cc1cc(S(=O)(=O)NC2CCC(CN3CCN(c4ccc(C(=O)NC5CCC(=O)NC5=O)cc4C)CC3)CC2)ccc1Nc1ncc(C(F)(F)F)c(N2CCCC(C)(O)C2)n1` (stereo not drawn) [I-1126], for which the “CDK2 degradation 14 h: Average Dmax %” value was “A (A (>75% o))” and the 50% degradation concentration (DC50) was in the range of 0.1 to 0.5 µM.

As for `Cc1cc(S(=O)(=O)NC2CCC(CN3CCC(c4ccc(C5CCC(=O)NC5=O)c(F)c4)CC3)CC2)ccc1Nc1ncc(C(F)(F)F)c(N2CCCC(C)(O)C2)n1` (stereo not drawn) [I-1131], the “CDK2 degradation 14 h: Average Dmax %” value is given as “A (A (>75% o))” and the 50% degradation concentration (DC50) is under 0.1 µM.

Take `Cc1cc(S(=O)(=O)NC2CCC(CN3CCN(c4ccc(C5CCC(=O)NC5=O)cc4F)C(C)C3)CC2)ccc1Nc1ncc(C(F)(F)F)c(N2CCCC(C)(O)C2)n1` (stereo not drawn) [I-1137]: the “CDK2 degradation 14 h: Average Dmax %” value is “A (A (>75% o))” and the DC50 was under 0.1 µM.

With `Cc1cc(S(=O)(=O)NC2CCC(CN3CCN(c4ccc(C5CCC(=O)NC5=O)c(C(F)(F)F)c4)CC3)CC2)ccc1Nc1ncc(C(F)(F)F)c(N2CCCC(C)(O)C2)n1` (stereo not drawn) [I-1138], the “CDK2 degradation 14 h: Average Dmax %” value is recorded as “B (B (>50% -75%))” and the DC50 was over 1 µM.

In the case of `Cc1cc(S(=O)(=O)NC2CCN(CC3CCN(c4ccc(C5CCC(=O)NC5=O)cc4F)CC3)CC2F)ccc1Nc1ncc(C(F)(F)F)c(N2CCCC(C)(O)C2)n1` (stereo not drawn) [I-1140], the “CDK2 degradation 14 h: Average Dmax %” value was “A (A (>75% o))” and the 50% degradation concentration (DC50) was under 0.1 µM.

For the molecule `Cc1cc(S(=O)(=O)NC2CCN(CC3CCN(c4ccc(C5CCC(=O)NC5=O)cc4F)CC3)CC2F)ccc1Nc1ncc(C(F)(F)F)c(N2CCCC(C)(O)C2)n1` (stereo not drawn) [I-1141], the “CDK2 degradation 14 h: Average Dmax %” value is recorded as “A (A (>75% o))” and the DC50 is under 0.1 µM.

With `Cc1cc(S(=O)(=O)NC2CCC(CN3CCN(c4ncc(C5CCC(=O)NC5=O)cc4F)CC3)CC2)ccc1Nc1ncc(C(F)(F)F)c(N2CCCC(C)(O)C2)n1` (stereo not drawn) [I-1142], the “CDK2 degradation 14 h: Average Dmax %” value was “A (A (>75% o))” and the 50% degradation concentration (DC50) was under 0.1 µM.

As to `Cc1cc(S(=O)(=O)NC2CCC(CN3CCN(c4cccc(NC5CCC(=O)NC5=O)c4F)CC3)CC2)ccc1Nc1ncc(C(F)(F)F)c(N2CCCC(C)(O)C2)n1` (stereo not drawn) [I-1143], the “CDK2 degradation 14 h: Average Dmax %” value is recorded as “A (A (>75% o))” and the DC50 was under 0.1 µM.

As to `Cc1cc(S(=O)(=O)NC2CCC(CN3CCN(c4cc(F)cc(NC5CCC(=O)NC5=O)c4)CC3)CC2)ccc1Nc1ncc(C(F)(F)F)c(N2CCCC(C)(O)C2)n1` (stereo not drawn) [I-1144], the “CDK2 degradation 14 h: Average Dmax %” value is recorded as “A (A (>75% o))” and the DC50 lay within 0.1 to 0.5 µM.

As to `Cc1cc(S(=O)(=O)NC2CCC(CN3CCN(c4cccc5c4n(C)c(=O)n5C4CCC(=O)NC4=O)CC3)CC2)ccc1Nc1ncc(C(F)(F)F)c(N2CCCC(C)(O)C2)n1` (stereo not drawn) [I-1145], the “CDK2 degradation 14 h: Average Dmax %” value was “A (A (>75% o))” and the DC50 is under 0.1 µM.

`Cc1cc(S(=O)(=O)NC2CCC(CN3CCN(c4c(C)cc(C5CCC(=O)NC5=O)cc4F)CC3)CC2)ccc1Nc1ncc(C(F)(F)F)c(N2CCCC(C)(O)C2)n1` (stereo not drawn) [I-1146]: the “CDK2 degradation 14 h: Average Dmax %” value was “A (A (>75% o))” and the DC50 is under 0.1 µM.

`Cc1cc(S(=O)(=O)N2CCC(CN(C)C3CCN(c4cccc5c4n(C)c(=O)n5C4CCC(=O)NC4=O)CC3)CC2)ccc1Nc1nccc(-c2cnc(C)n2C(C)C)n1` (stereo not drawn) [I-1152]: the “CDK2 degradation 14 h: Average Dmax %” value is listed as “A (A (>75% o))” and the 50% degradation concentration (DC50) is under 0.1 µM.

As for `Cc1cc(S(=O)(=O)N2CCC(CN(C)C3CCN(c4cccc5c4n(C)c(=O)n5C4CCC(=O)NC4=O)CC3)CC2)ccc1Nc1ncc(C(F)(F)F)c(C2CCCCC2)n1` (stereo not drawn) [I-1153], the “CDK2 degradation 14 h: Average Dmax %” value was “A (A (>75% o))” and the DC50 was 0.1 to 0.5 µM.

Consider `Cc1cc(S(=O)(=O)N2CCC(CN(C)C3CCN(c4cccc5c4n(C)c(=O)n5C4CCC(=O)NC4=O)CC3)CC2)ccc1Nc1ncc(C(F)(F)F)c(-c2cnn(C)c2)n1` (stereo not drawn) [I-1155], for which the “CDK2 degradation 14 h: Average Dmax %” value is “A (A (>75% o))” and the DC50 was under 0.1 µM.

For orientation: DC50 means the midpoint of the concentration-degradation curve.

For the origin of these results see patent US20240173419A1, “CDK2 DEGRADERS AND USES THEREOF” (Kymera Therapeutics, Inc., priority 2022, published 2024).
